The values below come from ChEMBL document CHEMBL5143585, “Discovery and characterization of benzyloxy piperidine based dopamine 4 receptor antagonists” (Bioorg Med Chem Lett, 2022).

Broadly, the inhibition is the change of the read-out against control, counted positive when it falls. Lower therefore signals a response near the control. As a reminder, the IC50 is the concentration at which inhibition is half-maximal. One may read the Ki as the dissociation constant of the complex between target and ligand, obtained from inhibition or displacement. High values mean weaker binding, low ones tighter binding.

One data set addresses D(3) dopamine receptor (Homo sapiens, UniProt P35462). The data set is described as follows: Displacement of [3H]N-methylspiperone from human D3 receptor expressed in HEK293 cell membrane at 10 uM by competitive inhibition based analysis. Type of data set: cell membranes. On the technique in general: Loss of bound radioactivity is the signal in a displacement assay; it reports binding, not function.

The target of a further data set is T1, D(4) dopamine receptor (Homo sapiens, UniProt P21917).
T1 sequence (P21917 whole entry): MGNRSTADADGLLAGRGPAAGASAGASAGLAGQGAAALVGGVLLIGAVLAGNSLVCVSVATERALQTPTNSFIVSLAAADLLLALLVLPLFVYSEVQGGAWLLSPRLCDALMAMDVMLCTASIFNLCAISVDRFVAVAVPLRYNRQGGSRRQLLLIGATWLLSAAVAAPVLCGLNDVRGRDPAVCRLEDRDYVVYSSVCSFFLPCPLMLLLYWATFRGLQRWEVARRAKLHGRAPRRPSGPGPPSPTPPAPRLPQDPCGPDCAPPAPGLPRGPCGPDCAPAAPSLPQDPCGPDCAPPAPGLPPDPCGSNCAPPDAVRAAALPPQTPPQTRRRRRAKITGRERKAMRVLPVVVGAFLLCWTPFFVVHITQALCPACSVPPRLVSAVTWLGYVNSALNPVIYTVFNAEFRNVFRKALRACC
The data set is described as follows: Displacement of [3H]N-methylspiperone from human D4 receptor expressed in HEK293 cell membrane by competitive inhibition based analysis. Type of data set: cell membranes.

The target in the next data set is D(1A) dopamine receptor (Homo sapiens, UniProt P21728). The data set is described as follows: Displacement of [3H]-SCH23390 from human D1 receptor expressed in HEK293 cell membrane at 10 uM by competitive inhibition based analysis. Type of data set: cell membranes.
A further data set concerns the target D(1B) dopamine receptor (Homo sapiens, UniProt P21918). The data set is described as follows: Displacement of [3H]-SCH23390 from human D5 receptor expressed in HEK293 cell membrane at 10 uM by competitive inhibition based analysis. Type of data set: cell membranes.
Data set [1] addresses D(2) dopamine receptor (Homo sapiens) (UniProt P14416). The data set is described as follows: Displacement of [3H]N-methylspiperone from human D2 receptor expressed in HEK293 cell membrane at 10 uM by competitive inhibition based analysis. Type of data set: cell membranes.
A short description of data set [2]: Protein binding in mouse plasma assessed as unbound fraction. Type of data set: ADME, cell-free.
Data set [3] can be described thus: Protein binding in human plasma assessed as unbound fraction. Type of data set: ADME, cell-free.

Chain of D(3) dopamine receptor (P35462 whole entry): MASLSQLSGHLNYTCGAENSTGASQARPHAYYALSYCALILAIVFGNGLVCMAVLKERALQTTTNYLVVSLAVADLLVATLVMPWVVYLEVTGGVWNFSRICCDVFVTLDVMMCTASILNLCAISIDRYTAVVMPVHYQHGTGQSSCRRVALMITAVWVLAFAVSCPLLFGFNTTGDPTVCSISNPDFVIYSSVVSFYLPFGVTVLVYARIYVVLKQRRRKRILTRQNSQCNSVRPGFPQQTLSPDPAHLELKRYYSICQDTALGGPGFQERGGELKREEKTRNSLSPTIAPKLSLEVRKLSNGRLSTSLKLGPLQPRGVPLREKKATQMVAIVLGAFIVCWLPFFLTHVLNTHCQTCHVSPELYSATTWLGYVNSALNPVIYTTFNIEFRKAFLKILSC
Chain of D(1A) dopamine receptor (P21728 whole entry): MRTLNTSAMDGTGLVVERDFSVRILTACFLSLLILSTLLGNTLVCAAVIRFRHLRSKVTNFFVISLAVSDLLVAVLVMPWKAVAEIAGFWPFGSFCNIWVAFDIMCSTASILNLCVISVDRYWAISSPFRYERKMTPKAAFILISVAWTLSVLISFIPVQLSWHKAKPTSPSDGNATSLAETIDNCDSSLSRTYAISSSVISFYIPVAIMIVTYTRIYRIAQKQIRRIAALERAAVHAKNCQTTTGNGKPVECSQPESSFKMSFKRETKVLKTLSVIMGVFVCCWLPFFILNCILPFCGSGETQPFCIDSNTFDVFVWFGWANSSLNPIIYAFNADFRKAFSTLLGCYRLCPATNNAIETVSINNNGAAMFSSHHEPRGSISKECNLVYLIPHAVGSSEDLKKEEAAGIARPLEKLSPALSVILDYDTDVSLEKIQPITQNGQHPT
Chain of D(2) dopamine receptor (Homo sapiens) (P14416 whole entry): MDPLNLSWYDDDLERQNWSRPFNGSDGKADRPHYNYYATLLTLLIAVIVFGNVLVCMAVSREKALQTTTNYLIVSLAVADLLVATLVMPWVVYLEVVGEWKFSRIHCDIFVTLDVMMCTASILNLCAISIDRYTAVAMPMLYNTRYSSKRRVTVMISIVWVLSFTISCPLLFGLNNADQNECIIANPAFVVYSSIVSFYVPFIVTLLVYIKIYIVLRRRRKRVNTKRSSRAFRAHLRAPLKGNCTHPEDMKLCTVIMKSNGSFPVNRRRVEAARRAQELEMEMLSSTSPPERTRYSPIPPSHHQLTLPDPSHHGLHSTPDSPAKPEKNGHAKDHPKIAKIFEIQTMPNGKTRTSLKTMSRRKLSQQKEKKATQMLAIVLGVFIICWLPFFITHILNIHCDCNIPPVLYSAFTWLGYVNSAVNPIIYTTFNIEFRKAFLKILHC
Chain of D(1B) dopamine receptor (P21918 whole entry): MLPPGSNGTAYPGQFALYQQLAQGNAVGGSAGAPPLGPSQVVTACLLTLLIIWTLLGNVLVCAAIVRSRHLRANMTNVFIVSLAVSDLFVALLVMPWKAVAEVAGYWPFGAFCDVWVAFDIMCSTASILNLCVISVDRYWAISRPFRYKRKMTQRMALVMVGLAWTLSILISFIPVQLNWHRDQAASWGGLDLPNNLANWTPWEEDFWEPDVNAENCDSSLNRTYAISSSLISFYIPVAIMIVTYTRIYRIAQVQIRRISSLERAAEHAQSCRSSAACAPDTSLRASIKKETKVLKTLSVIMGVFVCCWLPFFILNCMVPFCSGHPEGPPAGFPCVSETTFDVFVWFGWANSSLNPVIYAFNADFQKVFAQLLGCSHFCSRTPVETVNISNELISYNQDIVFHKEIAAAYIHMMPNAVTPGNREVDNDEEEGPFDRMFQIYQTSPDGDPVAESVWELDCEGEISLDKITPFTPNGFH

Consider `COc1ccc(CN2CCC[C@H](OCc3cccc(F)c3)C2)cc1F`, for which the inhibition (at D(3) dopamine receptor; at D(1A) dopamine receptor; at D(1B) dopamine receptor; in data set [1]) was under 50% in each case. Moreover, on D(4) dopamine receptor, the IC50 is 204 nM. The compound further displayed a Ki at D(4) dopamine receptor of 206 nM.
Regarding `Cc1nc(CN2CCC(OCc3ccc(Cl)c(F)c3)CC2)c2ccccn12`, the inhibition (on D(3) dopamine receptor; on D(1A) dopamine receptor; at D(1B) dopamine receptor; in data set [1]) was under 50% in each case. At D(4) dopamine receptor, this compound showed an IC50 of 95.5 nM. Also, on D(4) dopamine receptor, the Ki amounted to 95.5 nM. For the same compound, the Fu in data set [2] stood at 13.2%; in data set [3], 7.1%.
`COc1ccc(CN2CCC[C@H](OCc3cccc(C)n3)C2)cc1F`: the inhibition (on D(3) dopamine receptor; on D(1A) dopamine receptor; on D(1B) dopamine receptor; in data set [1]) was under 50% each time. For the same compound, the half-maximal inhibitory concentration (IC50) on D(4) dopamine receptor is 1050 nM. At D(4) dopamine receptor, this compound yielded a Ki of 1040 nM.
For the compound `Fc1cccc(COC2CCN(Cc3cn4ccccc4n3)CC2)c1`, the inhibition (on D(3) dopamine receptor; at D(1A) dopamine receptor; at D(1B) dopamine receptor; in data set [1]) was under 50% each time. The compound also showed an IC50 at D(4) dopamine receptor of 166 nM. In addition, the Ki on D(4) dopamine receptor was found to be 167 nM. Besides, the Fu in data set [2] worked out at 35.5%; in data set [3], 7%.
For the compound `Cn1ncc2cc(CN3CCC(OCc4ccc(Cl)c(F)c4)CC3)ccc21`, the inhibition (at D(3) dopamine receptor; at D(1A) dopamine receptor; on D(1B) dopamine receptor; in data set [1]) was under 50% each time. The compound also had an IC50 at D(4) dopamine receptor of 170 nM. On D(4) dopamine receptor, this compound registered a Ki of 170 nM. For the same compound, the Fu in data set [2] was 5.2%; in data set [3], 0.9%.
For `Fc1ccc(COC2CCN(Cc3ncc4ccccn34)CC2)cc1F`, the inhibition (at D(3) dopamine receptor; on D(1A) dopamine receptor; on D(1B) dopamine receptor; in data set [1]) was under 50% in each case. On D(4) dopamine receptor, this compound had an IC50 of 214 nM. The compound also returned a Ki at D(4) dopamine receptor of 215 nM.
Take `Cc1nc(CN2CCC(OCc3ccc(F)c(F)c3)CC2)c2ccccn12`: the inhibition (at D(3) dopamine receptor; at D(1A) dopamine receptor; on D(1B) dopamine receptor; in data set [1]) was under 50% each time. Moreover, at D(4) dopamine receptor, the 50% inhibitory concentration (IC50) is 479 nM. Also, the affinity on D(4) dopamine receptor corresponds to a Ki of 478 nM.
`Fc1cccc(COC2CCN(Cc3ncn4ccccc34)CC2)c1`: the inhibition (on D(3) dopamine receptor; at D(1A) dopamine receptor; at D(1B) dopamine receptor; in data set [1]) was under 50% in each case. Moreover, on D(4) dopamine receptor, the IC50 was 166 nM. The affinity at D(4) dopamine receptor corresponds to a Ki of 166 nM. Further, the Fu is reported as 40.5% in data set [2] and 2.3% in data set [3].
Turning to `COc1ccc(CN2CCC[C@H](OCc3ccccc3C)C2)cc1F`, the inhibition (on D(3) dopamine receptor; on D(1A) dopamine receptor; on D(1B) dopamine receptor; in data set [1]) was under 50% each time. On D(4) dopamine receptor, this compound had an IC50 of 347 nM. On D(4) dopamine receptor, this compound registered a Ki of 343 nM.
Consider `FC(F)(F)c1cccc(COC2CCN(Cc3cn4ccccc4n3)CC2)c1`, for which the inhibition (on D(3) dopamine receptor; on D(1A) dopamine receptor; on D(1B) dopamine receptor; in data set [1]) was under 50% each time. The IC50 on D(4) dopamine receptor was 166 nM. The inhibition constant (Ki) at D(4) dopamine receptor turned out to be 166 nM. For the same compound, the results for the Fu in data set [2] and in data set [3] were 17.1% and 1.8%, respectively.
Take `Cc1cc(CO[C@H]2CCCN(Cc3ncn4ccccc34)C2)ccc1F`: the inhibition (at D(3) dopamine receptor; at D(1A) dopamine receptor; at D(1B) dopamine receptor; in data set [1]) was under 50% each time. In addition, on D(4) dopamine receptor, the IC50 is 162 nM. At D(4) dopamine receptor, this compound registered a Ki of 166 nM.
Turning to `Cn1cnc2cc(CN3CCC(OCc4ccc(F)c(F)c4)CC3)ccc21`, on D(4) dopamine receptor, the IC50 was 1410 nM and the Ki is 1400 nM.
On D(4) dopamine receptor, `COc1ccc(CN2CCC[C@@H](OCc3ccc(F)c(C)c3)C2)cc1F` showed an IC50 of 2000 nM and a Ki of 1980 nM.
Take `Cc1ccccc1CO[C@H]1CCCN(Cc2cn3ccccc3n2)C1`: the inhibition (on D(3) dopamine receptor; on D(1A) dopamine receptor; at D(1B) dopamine receptor; in data set [1]) was under 50% in each case. The compound further showed an IC50 at D(4) dopamine receptor of 1820 nM. The compound further yielded an inhibition constant (Ki) on D(4) dopamine receptor of 1830 nM.
Turning to `Cc1ccc(CO[C@H]2CCCN(Cc3ccc(Cl)c(Cl)c3)C2)cc1`, the inhibition (at D(3) dopamine receptor; at D(1A) dopamine receptor; on D(1B) dopamine receptor; in data set [1]) was under 50% throughout. The IC50 on D(4) dopamine receptor is 1380 nM. Moreover, the Ki on D(4) dopamine receptor came out at 1390 nM.
With `Cc1ccc(CN2CCC[C@H](OCc3ccc(F)c(C)c3)C2)cc1`, the inhibition (at D(3) dopamine receptor; at D(1A) dopamine receptor; on D(1B) dopamine receptor; in data set [1]) was under 50% throughout. For the same compound, the IC50 at D(4) dopamine receptor was 166 nM. On D(4) dopamine receptor, affinity was put at a Ki of 165 nM.
Take `Cc1ccc(CO[C@H]2CCCN(Cc3ccc(C#N)cc3)C2)cc1`: the inhibition (at D(3) dopamine receptor; on D(1A) dopamine receptor; on D(1B) dopamine receptor; in data set [1]) was under 50% each time. The compound further had an IC50 at D(4) dopamine receptor of 1020 nM. Also, on D(4) dopamine receptor, the Ki is 1010 nM.
In the case of `Fc1cccc(CO[C@H]2CCCN(Cc3ncn4ccccc34)C2)c1`, the inhibition (at D(3) dopamine receptor; on D(1A) dopamine receptor; at D(1B) dopamine receptor; in data set [1]) was under 50% throughout. In addition, on D(4) dopamine receptor, the concentration for half-maximal inhibition (IC50) was 1350 nM. On D(4) dopamine receptor, this compound came in with a Ki of 1340 nM.
As for `COc1ccc(CN2CCC[C@H](OCc3ccc(F)c(C)c3)C2)cc1F`, the inhibition (at D(3) dopamine receptor; on D(1A) dopamine receptor; on D(1B) dopamine receptor; in data set [1]) was under 50% throughout. Besides, the IC50 at D(4) dopamine receptor was 135 nM. The compound further came in with a Ki on D(4) dopamine receptor of 135 nM.
With `Fc1cccc(CO[C@H]2CCCN(Cc3cn4ccccc4n3)C2)c1`, the inhibition (at D(3) dopamine receptor; at D(1A) dopamine receptor; on D(1B) dopamine receptor; in data set [1]) was under 50% each time. The compound further gave an IC50 on D(4) dopamine receptor of 1950 nM. Besides, the Ki on D(4) dopamine receptor amounted to 1940 nM.
With `COc1ccc(CN2CCC[C@H](OCc3ccc(C)cc3)C2)cc1F`, the inhibition (at D(3) dopamine receptor; at D(1A) dopamine receptor; at D(1B) dopamine receptor; in data set [1]) was under 50% each time. At D(4) dopamine receptor, this compound had a concentration for half-maximal inhibition (IC50) of 240 nM. This compound registered a Ki at D(4) dopamine receptor of 241 nM.
For `Fc1cc(COC2CCN(Cc3ccc4[nH]ncc4c3)CC2)ccc1Cl`, on D(4) dopamine receptor, the IC50 was 575 nM and the affinity corresponds to a Ki of 580 nM.
For `Fc1ccc(CO[C@H]2CCCN(Cc3cn4ccccc4n3)C2)cc1F`, the inhibition (at D(3) dopamine receptor; on D(1A) dopamine receptor; on D(1B) dopamine receptor; in data set [1]) was under 50% in each case. Also, the IC50 on D(4) dopamine receptor was 372 nM. For the same compound, at D(4) dopamine receptor, the Ki came out at 375 nM. The figures for the Fu in data set [2] and in data set [3] were 8.7% and 0.2%, respectively.
As for `Fc1ccc(CO[C@H]2CCCN(Cc3ncn4ccccc34)C2)cc1F`, the inhibition (at D(3) dopamine receptor; on D(1A) dopamine receptor; at D(1B) dopamine receptor; in data set [1]) was under 50% in each case. This compound showed a half-inhibitory concentration (IC50) on D(4) dopamine receptor of 447 nM. The affinity at D(4) dopamine receptor, expressed as Ki, was 447 nM. In addition, the results for the Fu in data set [2] and in data set [3] were 18.1% and 3.9%, respectively.
`Fc1ccc(COC2CCN(Cc3ccc4[nH]ncc4c3)CC2)cc1F`: on D(4) dopamine receptor, the IC50 was 1740 nM and the Ki came out at 1730 nM.
With `FC(F)(F)c1cccc(COC2CCN(Cc3ncc4ccccn34)CC2)c1`, the inhibition (on D(3) dopamine receptor; on D(1A) dopamine receptor; on D(1B) dopamine receptor; in data set [1]) was under 50% each time. On D(4) dopamine receptor, the IC50 was 209 nM. The Ki on D(4) dopamine receptor worked out at 208 nM.
Take `Cc1cc(CO[C@H]2CCCN(Cc3cn4ccccc4n3)C2)ccc1F`: the inhibition (on D(3) dopamine receptor; on D(1A) dopamine receptor; at D(1B) dopamine receptor; in data set [1]) was under 50% in each case. Further, the IC50 at D(4) dopamine receptor was 186 nM. At D(4) dopamine receptor, this compound came in with an inhibition constant (Ki) of 187 nM.
Regarding `Cc1cccc(CO[C@H]2CCCN(Cc3cc4ccc(Cl)cc4[nH]3)C2)n1`, the inhibition (at D(3) dopamine receptor; on D(1A) dopamine receptor; on D(1B) dopamine receptor; in data set [1]) was under 50% each time. On D(4) dopamine receptor, this compound had an IC50 of 316 nM. The affinity on D(4) dopamine receptor, expressed as Ki, was 319 nM.
As to `FC(F)(F)c1cccc(COC2CCN(Cc3ccc4[nH]ncc4c3)CC2)c1`, on D(4) dopamine receptor, the IC50 is 851 nM and the Ki came out at 860 nM.
Consider `FC(F)(F)Oc1cccc(CO[C@H]2CCCN(Cc3cn4ccccc4n3)C2)c1`, for which the inhibition (on D(3) dopamine receptor; on D(1A) dopamine receptor; at D(1B) dopamine receptor; in data set [1]) was under 50% throughout. The same compound showed an IC50 at D(4) dopamine receptor of 646 nM. This compound yielded a Ki on D(4) dopamine receptor of 646 nM.
